Experimental data: PubChem BioAssay AID1996
In brackets after ≈: the same amount, converted by molar mass.

conditions: buffer; pH 7.4; 200.0 µM

| Structure (SMILES) | solubility kinetic [µg/mL] |
| --- | --- |
| O=C(/C=C/c1cccc(F)c1)Nc1ccc(S(=O)(=O)N2CCOCC2)cc1 | 1 (≈ 2.56 µM) |
| Cc1ccc(S(=O)(=O)N2CCOCC2)cc1NC(=O)c1ccc(F)cc1F | 8.2 (≈ 20.7 µM) |
| Brc1ccc(C2=CSC3=NCCN23)cc1 | 28.9 (≈ 103 µM) |
| COc1ccc(N2C(=O)NC(NC(=O)C(C)(C)C)(C(F)(F)F)C2=O)cc1 (stereo not given) | > 56 |
| CSc1ccccc1-c1nc(-c2ccncc2)no1 | 1.2 (≈ 4.46 µM) |
| Nc1cc(N)nc(SCC(=O)NCCC2=CCCCC2)n1 | > 46.1 |
| CCCCC(=O)N1CC(=O)Nc2ccc(F)cc2C1c1ccccc1 (stereo not given) | > 51.1 |
| O=C(Nc1ccc(Br)cc1Cl)c1ccc(OCC2CCCO2)cc1 (stereo not given) | 2.8 (≈ 6.82 µM) |
| Cc1c(C(=O)N2CCCc3ccccc32)oc2ccccc12 | 5.7 (≈ 19.6 µM) |
| CCOC(=O)C1=C(C)NC(=O)CC1c1ccccc1OC (stereo not given) | 36.8 (≈ 127 µM) |
| Cc1cccc(NC(=O)NCCN2CCCCC2)c1 | > 39.2 |
| CCOc1ncccc1C(=O)OCC(=O)NC1CCCCC1 | 34.2 (≈ 112 µM) |
| CN1C(=O)C(=Cc2ccc(N3CCCCCC3)cc2)C(=O)N(C)C1=O | 7 (≈ 20.5 µM) |
| Cc1noc(C)c1C(=O)OCC(=O)Nc1c(F)cccc1F | 24 (≈ 77.4 µM) |
| COc1ccc(N(CC(=O)NC2CCCCC2)S(=O)(=O)c2cccs2)cc1 | 1.2 (≈ 2.94 µM) |
| Cc1cc([N+](=O)[O-])ccc1NCc1ccc2c(c1)OCCO2 | 10.8 (≈ 36 µM) |
| Cc1ccc(S(=O)(=O)C2(C(=O)NC3CCCCC3C)CC2)cc1 (stereo not given) | 37.3 (≈ 111 µM) |
| CCOC(=O)c1ccc(NC(=O)CSCCC(=O)O)cc1 | 45.1 (≈ 145 µM) |
| COc1ccccc1C(=O)C1CCCN(C(=O)c2ccco2)C1 (stereo not given) | > 47 |
| O=C(Cc1ccccc1Cl)N1CCN(c2ccccn2)CC1 | > 47.4 |

| Structure (SMILES) | solubility kinetic [µg/mL] |
| --- | --- |
| Nc1ccccc1S(=O)(=O)C(F)F | 28.4 (≈ 137 µM) |
| Cn1c(=O)c([N+](=O)[O-])c(-n2ccnc2)c2ccccc21 | 37.4 (≈ 138 µM) |
| CCNC(=S)NNC(=O)CC(C)C | > 30.5 |
| COc1ccc(OCCOCCN2CCN(C)CC2)cc1.O=C(O)C(=O)O | 54.2 |
| Cl.O=C(O)C1=CCCNC1 | > 24.5 |
| Cc1ccc(CCC(=O)Nc2ccc([N+](=O)[O-])cc2Cl)o1 | 7.5 (≈ 24.3 µM) |
| Cc1ccc(NC(=S)Nc2cc(C)on2)cc1 | 31.8 (≈ 129 µM) |
| CN(C)CCC(=O)c1ccc(F)cc1.Cl | > 34.8 |
| CCCOc1cccc(C(=O)NCCNC(=O)c2ccco2)c1 | > 47.5 |
| O=S(=O)(Nc1cccc2ccccc12)c1ccccc1 | 8.6 (≈ 30.4 µM) |
| CCOC(=O)C1=C(O)CSC1=Nc1ccc(C)cc1 | > 41.6 |
| Cc1ccc2c(c1)cc(C(=O)NCc1ccccc1)n2C | 3.5 (≈ 12.6 µM) |
| CCC(=O)Nc1ccc(-c2ccc(N3CCN(C)CC3)nn2)cc1 | > 48.8 |
| Cc1nonc1-c1csc(N)n1 | > 27.3 |
| COCC(=O)Nc1ccc(OC)c(Cl)c1 | 33.8 (≈ 147 µM) |
| CC(C)(C)c1ccc(C(=O)NCCN2CCOCC2)cc1 | > 43.6 |
| CCN(c1ccccc1)S(=O)(=O)c1cccc(C(=O)Nc2ccc(C)cn2)c1 | 9.7 (≈ 24.5 µM) |
| Cc1ccccc1C(=O)OCC(=O)NCC1COc2ccccc2O1 (stereo not given) | 40.9 (≈ 120 µM) |
| NC1=NC(=O)/C(=C/c2ccc(Br)cc2)S1 | 1.8 (≈ 6.36 µM) |
| Cc1ccc(-n2c(C)c([N+](=O)[O-])c3ccc(O)cc32)cc1 | 0.4 (≈ 1.42 µM) |

| Structure (SMILES) | solubility kinetic [µg/mL] |
| --- | --- |
| CCOc1ccc(NC(=O)c2cc(=O)[nH]c3ccccc23)cc1 | 1.3 (≈ 4.22 µM) |
| Cc1nc(C(F)(F)F)ccc1C(=O)NCC(O)c1ccccc1 (stereo not given) | > 48.6 |
| Cc1nc(C)c(Oc2cccc(C(F)(F)F)c2)c(=O)[nH]1 | 38.2 (≈ 134 µM) |
| COc1ccc(OC)c(CNC(=O)c2coc(=O)c3ccccc23)c1 | > 50.9 |
| CN(C(=O)COC(=O)c1ccc(C#N)cc1)c1ccccc1 | 19.4 (≈ 65.9 µM) |
| Cc1ccc(NC(=O)CCC(=O)c2cccs2)c(Br)c1 | 8.6 (≈ 24.4 µM) |
| O=C1OCCN/C1=C\C(=O)c1ccccc1 | > 32.6 |
| O=C1CC(Sc2ccc(Cl)cc2)C(=O)N1Cc1ccncc1 (stereo not given) | 18.9 (≈ 56.8 µM) |
| CC(C)=NN1C(c2nonc2N)=NOC1(C)C | > 35.7 |
| COc1ccc2oc(C(=O)NCC3CCCO3)c(C)c2c1 (stereo not given) | 39.8 (≈ 138 µM) |
| COc1ccc(-c2csc(C)n2)cc1Br | 14.8 (≈ 52.1 µM) |
| CCCCOc1ccc(-c2ncc(N)cn2)cc1 | 24.2 (≈ 99.5 µM) |
| O=C(OCC(=O)c1ccc[nH]1)c1ccc(Br)cc1 | 7.2 (≈ 23.4 µM) |
| O=[N+]([O-])c1cnn2cc(Br)cnc12 | > 36.5 |
| OCCC1CN(Cc2ccon2)CCN1Cc1ccc(F)c(F)c1 (stereo not given) | 40.7 (≈ 121 µM) |
| N/C(=N\O)c1ccc(N2CCN(c3ncccc3C(F)(F)F)CC2)nc1 | 51.7 (≈ 141 µM) |
| Clc1ccc2nc(-c3ccccc3)cn2c1 | 1.4 (≈ 6.12 µM) |
| CCN(c1ccccc1)S(=O)(=O)c1ccc(C(=O)NCc2ccco2)cc1 | 32 (≈ 83.2 µM) |
| Cn1c(=O)c(=O)n(C)c2cc([N+](=O)[O-])c(N3CCOCC3)cc21 | > 48 |
| Cc1cccc(C)c1NC(=O)CNC(=O)c1c(C)nn(C)c1Cl | > 50.2 |
